In US6878734B2, “Gastrin and cholecystokinin receptor ligands(II)” (James Black Foundation Limited, priority 2000, dated 2005):

Columns and labels:
gastrin (CCK2) receptors = target: T1, gastrin (CCK2) receptors (Rattus norvegicus, UniProt P30553); experiment: immature rat stomach assay, gastrin (CCK2) antagonist activity; conditions: isolated immature rat stomach, antagonism of pentagastrin-stimulated acid secretion, 60 min incubation; for Kb: read-out: Rat stomach pKB (converted)
T1 construct: The stomach was excised and flushed with ca. 1 ml of unbuffered physiological saline solution; from tissue; host or cells: isolated whole stomach of immature rats (33-50 g, ca. 21 days old)
T1 sequence (P30553 1-452): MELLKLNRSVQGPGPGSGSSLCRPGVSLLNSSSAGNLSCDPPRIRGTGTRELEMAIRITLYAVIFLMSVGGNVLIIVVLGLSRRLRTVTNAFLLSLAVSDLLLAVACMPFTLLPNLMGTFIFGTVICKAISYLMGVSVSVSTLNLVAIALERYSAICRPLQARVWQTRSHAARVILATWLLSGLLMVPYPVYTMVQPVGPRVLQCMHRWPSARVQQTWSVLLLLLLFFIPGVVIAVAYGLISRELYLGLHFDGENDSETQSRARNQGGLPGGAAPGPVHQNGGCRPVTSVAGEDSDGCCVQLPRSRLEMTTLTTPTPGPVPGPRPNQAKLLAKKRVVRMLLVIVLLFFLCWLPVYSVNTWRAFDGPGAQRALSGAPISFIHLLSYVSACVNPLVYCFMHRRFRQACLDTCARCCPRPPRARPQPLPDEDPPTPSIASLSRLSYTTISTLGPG
Experimental: The compounds of the examples were tested for gastrin (CCK2) antagonist activity in an immature rat stomach assay. The procedure was as follows:
The oesophagus of immature rats (33-50 g, ca. 21 days old) was ligated at the level of the cardiac sphincter and the duodenal sphincter was cannulated. The stomach was excised and flushed with ca. 1 ml of unbuffered physiological saline solution. The fundus was punctured and cannulated. A further 4-5 ml of unbuffered solution was flushed through the stomach to ensure the preparation was not leaking. The stomach was lowered into a jacketed organ bath containing 40 ml of buffered solution containing 3×10^−8 M 5-methylfurmethide, maintained at 37° and gassed vigorously with 95% O2/5% CO2. The stomach was continuously perfused at a rate of 1 ml min^−1 with unbuffered solution gassed with 100% O2 with perfusate passing over an internally referenced pH-electrode fixed 12 cm above the stomach.
After 120 min of stabilisation the drugs were added directly to the serosal solution in the organ bath and after a further 60 min cumulative pentagastrin dose-response curves were started. Changes in acid secretion were monitored and the curves analysed according to Black et al., Br. J. Pharmacol., 1985, 86, 581.

CCK1 receptors = target: T2, CCK1 receptors (Cavia porcellus, UniProt Q63931); experiment: CCK1 binding assay, guinea-pig pancreas membranes, [125I]-CCK8(S); conditions: [125I]-CCK8(S) 200 pM, 150 minutes at 21±3° C; for Ki: read-out: Guinea-Pig Pancreas CCK1 pKi (converted)
T2 construct: The pancreatata were homogenised in 40 ml ice-cold HEPES buffer using a polytron; from tissue; host or cells: pancreas membranes of male Dunkin Hartley guinea-pigs
T2 sequence (Q63931 1-430): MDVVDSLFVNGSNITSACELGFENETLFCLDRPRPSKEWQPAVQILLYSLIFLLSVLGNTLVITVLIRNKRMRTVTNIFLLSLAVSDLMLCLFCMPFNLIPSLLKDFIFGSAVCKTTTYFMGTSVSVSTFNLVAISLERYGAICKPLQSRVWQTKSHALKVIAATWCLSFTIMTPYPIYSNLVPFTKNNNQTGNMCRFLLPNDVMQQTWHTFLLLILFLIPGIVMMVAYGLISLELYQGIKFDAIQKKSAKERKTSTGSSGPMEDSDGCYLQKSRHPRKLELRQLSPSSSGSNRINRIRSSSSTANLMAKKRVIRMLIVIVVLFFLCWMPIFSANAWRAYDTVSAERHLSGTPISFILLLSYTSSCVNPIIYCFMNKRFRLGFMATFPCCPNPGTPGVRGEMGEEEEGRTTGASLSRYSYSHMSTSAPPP
Experimental: The compounds of certain examples were also tested in a CCK1 binding assay as follows:
The pancreatata were removed from male guinea-pigs (200-300 g; Dunkin Hartley) and placed in ice-cold HEPES buffer (pH 7.2@21±3° C.). The pancreatata were homogenised in 40 ml ice-cold HEPES buffer using a polytron (Brinkmann, PT10, setting 10) 4×1 second. The homogenate was centrifuged at 39,800 g for 15 min at 4° C. The supernatant was discarded and the pellet re-suspended using a Teflon-in-glass homogeniser in 20 volumes of fresh buffer and re-centrifuged as above. The final pellet was re-suspended using a Teflon-in-glass homogeniser to a tissue concentration of 1 mg.ml^−1 (original wet weight), and filtered through a 500 μm pore-size Nytex mesh.
The membranes (400 μl; containing 0.375 μM PD134,308) were incubated for 150 minutes at 21±3° C. in a final volume of 0.5 ml with HEPES buffer containing [^125I]-CCK8 (S) (50 μl; 200 pM) and competing compound. Total and non-specific binding of [^125I]-CCK8 (S) were defined using 50 μl of buffer and 50μ of 100 nM L-364,718 respectively. The assay was terminated by rapid filtration through pre-soaked Whatman GF/B filters using a Brandell Cell Harvetser. The filters were washed (3×3 ml) with ice-cold 50 mM Tris HCl (pH 7.4@4° C.) and bound radioactivity was determined by counting (1 min) in a gamma counter.

Row | Compound | Kb (gastrin (CCK2) receptors) | Ki (CCK1 receptors) | Rat stomach pKB (gastrin (CCK2) receptors) | Guinea-Pig Pancreas CCK1 pKi (CCK1 receptors)
1 | 2-{5-[5-(Adamantan-1-yloxymethyl)-2-cyclohexyl-1H-imidazol-2-yl]-[1,3,4]oxadiazol-2-yl}-isonicotinic acid [Example 14] |  |  | 5.98 | 5.01
2 | 3-{2-[5-(2-Adamantan-1-yl-ethyl)-2-o-tolyl-1H-imidazol-4-yl]-[1,2,4]oxadiazol-3-yl}-benzoic acid [Example 5] |  |  | 5.76 | 6.40
3 | 3-{2-[5-(Adamantan-1-yloxymethyl)-2-cyclohexyl-1H-imidazol-4-yl]-[1,2,4]oxadiazol-3-yl}-benzoic acid [Example 3] |  |  | 8.66 | 6.37
4 | 3-{5-[5-(Adamantan-1-yloxymethyl)-2-cyclohexyl-1H-imidazol-4-yl]-[1,3,4]triazol-3-yl}-benzoic acid [Example 10] |  |  | 8.28 | 6.41
5 | 3-{5-[5-(Adamantan-1-yloxymethyl)-2-cyclohexyl-3-hydroxy-1H-imidazol-4-yl]-[1,3,4]oxadiazol-2-yl}-benzoic acid [Example 17] |  |  | 6.90 | 5.23
6 | O=C(O)c1cccc(-c2coc(-c3nc(C4CCCCC4)[nH]c3COC34CC5CC(CC(C5)C3)C4)n2)c1 [Example 1, 3-{2-[5-(Adamantan-1-yloxymethyl)-2-cyclohexyl-1H-imidazol-4-yl}-oxazol-4-yl}-benzoic acid] | 0.00794 µM | 0.741 µM |  | 
7 | Cc1ccccc1-c1nc(-c2nc(-c3cccc(C(=O)O)c3)co2)c(CCC23CC4CC(CC(C4)C2)C3)[nH]1 [Example 2, 3-{2-[5-(2-Adamantan-1-yl-ethyl)-2-o-tolyl-1H-imidazol-4-yl]oxazol-4-yl}-benzoic acid] | 0.0182 µM | 1.17 µM |  | 
8 | O=C(O)c1cccc(-c2noc(-c3nc(C4CCCCC4)[nH]c3CCC34CC5CC(CC(C5)C3)C4)n2)c1 [Example 4, 3-{2-[5-(2-Adamantan-1-yl-ethyl)-2-cyclohexyl-1H-imidazol-4-yl]-[1,2,4]oxadiazol-3-3-yl}-benzoic acid] | 0.00692 µM | 0.339 µM |  | 

Continued, in another order:

Row | Kb (gastrin (CCK2) receptors) | Ki (CCK1 receptors) | Compound | Rat stomach pKB (gastrin (CCK2) receptors) | Guinea-Pig Pancreas CCK1 pKi (CCK1 receptors)
9 | 0.00269 µM | 1.15 µM | O=C(O)c1cccc(-c2csc(-c3nc(C4CCCCC4)[nH]c3COC34CC5CC(CC(C5)C3)C4)n2)c1 [Example 6, 3-{2-[5-(Adamantan-1-yloxymethyl)-2-cyclohexyl-1H-imidazol-4-yl]-thiazol-4-yl}-benzoic acid] |  | 
10 | 0.0977 µM | 0.269 µM | O=C(O)c1cccc(-c2c[nH]c(-c3nc(C4CCCCC4)[nH]c3COC34CC5CC(CC(C5)C3)C4)n2)c1 [Example 7, 3-[5′-(Adamantan-1-yloxymethyl)-2′cyclohexyl-1H,1H′-[2,4′]biimidazolyl-4-yl]-benzoic acid] |  | 
11 | 0.00372 µM | 0.135 µM | O=C(O)c1cccc(-c2nnc(-c3nc(C4CCCCC4)[nH]c3COC34CC5CC(CC(C5)C3)C4)s2)c1 [Example 8, 3-{5-[5-(Adamantan-1-yloxymethyl)-2-cyclohexyl-1H-imidazol-4-yl]-[1,3,4]thiadiazol-2-yl}-benzoic acid] |  | 
12 | 0.00245 µM | 0.55 µM | O=C(O)c1cccc(-c2nnc(-c3nc(C4CCCCC4)[nH]c3COC34CC5CC(CC(C5)C3)C4)o2)c1 [Example 9, 3-{5-[5-(Adamantan-1-yloxymethyl)-2-cyclohexyl-1H-imidazol-4-yl]-[1,3,4]oxadiazol-2-yl}-benzoic acid] |  | 
13 | 0.191 µM |  | O=C(O)c1cccc(C2CN=C(c3nc(C4CCCCC4)[nH]c3COC34CC5CC(CC(C5)C3)C4)O2)c1 (centres unmarked) [Example 11, 3-{2-[5-(Adamantan-1-yloxymethyl)-2-cyclohexyl-1H-imidazol-4-yl]-4,5-dihydro-oxazol-5-yl}-benzoic acid] |  | 
14 |  | 2.14 µM | O=C(O)c1cccc(-c2nnc(-c3nc(C4CCCCC4)[nH]c3COC34CC5CC(CC(C5)C3)C4)o2)n1 [Example 12, 6-{5-[5-(Adamantan-1-yloxymethyl)-2-cyclohexyl-1H-imidazol-4-yl]-[1,3,4]oxadiazol-2-yl}-pyridine-2-carboxylic acid] |  | 
15 | 0.0229 µM | 3.24 µM | O=C(O)c1cncc(-c2nnc(-c3nc(C4CCCCC4)[nH]c3COC34CC5CC(CC(C5)C3)C4)o2)c1 [Example 13, 5-{5-[5-(Adamantan-1-yloxymethyl)-2-cyclohexyl-1H-imidazol-4-yl]-[1,3,4]oxadiazo-2-yl}-nicotinic acid] |  | 
16 | 0.00191 µM | 0.468 µM | O=C(O)c1cccc(-c2nnc(-c3nc(C45CCC(CC4)CC5)[nH]c3COC34CC5CC(CC(C5)C3)C4)o2)c1 [Example 16, 3-{5-[5-(Adamantan-1-yloxymethyl)-2-bicyclo[2.2.2]oct-1-yl-1H-imidazol-4-yl]-[1,3,4]oxadiazol-2-yl}-benzoic acid] |  | 
17 | 0.0024 µM | 0.501 µM | O=C(O)c1cccc(-c2nc(-c3nc(C4CCCCC4)[nH]c3COC34CC5CC(CC(C5)C3)C4)no2)c1 [Example 18, 3-{3-[5-(Adamantan-1-yloxymethyl)-2-cyclohexyl-1H-imidazol-4-yl]-[1,2,4]oxadiazol-5-yl}-benzoic acid] |  | 
